The values that follow come from patent US10752609B2, “GSK-3 inhibitors” (priority 2016, dated 2020).

Like-named read-outs stand apart in the source and are kept apart here.

The target in one experiment is GSK3β (Homo sapiens, UniProt P49841). As to the kind of experiment: GSK3β kinase assay (Caliper LabChip3000 mobility shift, fluoresceinated peptide substrate). It counts as biochemical.
Another experiment has as its system pTau. Kind of experiment: pTau assay (no method described). It is filed as cell-based.
A further experiment addresses GSK3α (Homo sapiens, UniProt P49840). Kind of experiment: GSK3α kinase assay (Caliper LabChip3000 mobility shift, fluoresceinated peptide substrate).
[1] abbreviates: 250 pM enzyme, 20 uM ATP, 1.5 uM peptide, 20 hours room temperature, first value of cell GSK3β/GSK3α, read-out: GSK3β (nM), IC50.

GSK3β, sequence (P49841 whole entry, species assumed): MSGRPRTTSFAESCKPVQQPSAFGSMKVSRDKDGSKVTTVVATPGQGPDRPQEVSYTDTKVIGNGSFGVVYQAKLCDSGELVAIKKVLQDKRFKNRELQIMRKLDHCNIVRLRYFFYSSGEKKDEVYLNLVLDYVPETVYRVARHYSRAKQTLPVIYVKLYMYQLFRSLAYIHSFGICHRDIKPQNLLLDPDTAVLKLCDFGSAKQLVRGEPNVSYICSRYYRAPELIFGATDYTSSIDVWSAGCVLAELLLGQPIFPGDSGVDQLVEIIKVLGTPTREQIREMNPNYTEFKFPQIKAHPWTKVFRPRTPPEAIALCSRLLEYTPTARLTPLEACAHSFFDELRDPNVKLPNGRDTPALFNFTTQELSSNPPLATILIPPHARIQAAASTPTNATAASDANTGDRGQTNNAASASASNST
GSK3α, sequence (P49840 whole entry, species assumed): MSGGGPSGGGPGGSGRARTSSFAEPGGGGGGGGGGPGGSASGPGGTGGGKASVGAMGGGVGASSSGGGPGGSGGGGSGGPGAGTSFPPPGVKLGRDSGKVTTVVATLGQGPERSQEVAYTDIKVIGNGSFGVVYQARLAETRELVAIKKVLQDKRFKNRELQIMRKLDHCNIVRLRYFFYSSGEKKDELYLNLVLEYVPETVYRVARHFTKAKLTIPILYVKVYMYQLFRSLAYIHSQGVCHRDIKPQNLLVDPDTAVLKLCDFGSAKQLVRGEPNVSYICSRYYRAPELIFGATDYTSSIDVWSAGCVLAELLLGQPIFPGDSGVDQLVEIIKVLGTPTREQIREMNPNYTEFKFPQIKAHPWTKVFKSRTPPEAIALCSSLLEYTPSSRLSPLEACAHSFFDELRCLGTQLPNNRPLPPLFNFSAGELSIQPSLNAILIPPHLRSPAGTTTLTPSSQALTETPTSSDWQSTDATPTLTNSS
Procedure for GSK3β: The kinase assay was performed in V-bottom 384-well plates. […] The reaction was incubated at room temperature for 20 hours and terminated by adding 45 μl of 35 mM EDTA to each sample. The reaction mixture was analyzed on the Caliper LabChip3000 (Caliper, Hopkinton, Mass.) by electrophoretic separation of the unphosphorylated substrate and phosphorylated product. […] Compounds were dissolved at 10 mM in dimethylsulfoxide (DMSO) and evaluated at eleven concentrations. IC50 values were derived by non-linear regression analysis.

Consider `O=C(Nc1cnc(F)cc1N1CCC(F)(F)CC1)c1ccnc(Nc2ccc(F)cc2)n1` [Example 180, N-(4-(4,4-Difluoropiperidin-1-yl)-6-fluoropyridin-3-yl)-2-((4-fluorophenyl)amino)pyrimidine-4-carboxamide], for which the figures for the IC50 at GSK3β (setting [1]), with pTau and at GSK3α were 0.9 nM, 68 nM and 0.39 nM, respectively.

For `CC(C)OCCCNc1nccc(C(=O)Nc2cncnc2OCC(F)(F)F)n1` [Example 74, 2-((3-Isopropoxypropyl)amino)-N-(4-(2,2,2-trifluoroethoxy)pyrimidin-5-yl)pyrimidine-4-carboxamide], the IC50 at GSK3β (setting [1]) is 5.9 nM; with pTau it was 890 nM; at GSK3α, 4.5 nM.

`O=C(Nc1cnccc1OCC(F)(F)F)c1ccnc(NCc2ccccc2F)n1` [Example 129, 2-((2-Fluorobenzyl)amino)-N-(4-(2,2,2-trifluoroethoxy)pyridin-3-yl)pyrimidine-4-carboxamide]: the IC50 came to 1.5 nM on GSK3β (setting [1]), 180 nM in the experiment with pTau and 1.8 nM at GSK3α.

As to `O=C(Nc1cnccc1OCC(F)(F)F)c1ccnc(NC2CCCOC2)n1` (stereo not drawn) [Example 85, 2-((Tetrahydro-2H-pyran-3-yl)amino)-N-(4-(2,2,2-trifluoroethoxy)pyridin-3-yl)pyrimidine-4-carboxamide], the IC50 amounted to 0.51 nM on GSK3β (setting [1]), 17 nM in the experiment with pTau and 0.41 nM at GSK3α.

For `O=C(Nc1cnccc1OCC(F)(F)F)c1ccnc(Nc2ccccn2)n1` [Example 114, 2-(Pyridin-2-ylamino)-N-(4-(2,2,2-trifluoroethoxy)pyridin-3-yl)pyrimidine-4-carboxamide], the IC50 on GSK3β amounted to 20 nM; with pTau, 210 nM; at GSK3α, 14 nM.

In the case of `CCCC1(c2cc(Cl)ncc2NC(=O)c2ccnc(NC3CCOCC3)n2)OCCO1` [Example 167, N-(6-Chloro-4-(2-propyl-1,3-dioxolan-2-yl)pyridin-3-yl)-2-((tetrahydro-2H-pyran-4-yl)amino)pyrimidine-4-carboxamide], the IC50 on GSK3β (setting [1]) came out at 0.43 nM; with pTau, 69 nM; at GSK3α, 0.47 nM.

For the compound `O=C(Nc1cnccc1OCC(F)(F)F)c1ccnc(Nc2ccccc2)n1` [Example 51, 2-(Phenylamino)-N-(4-(2,2,2-trifluoroethoxy)pyridin-3-yl)pyrimidine-4-carboxamide], the IC50 at GSK3β (setting [1]) was 0.25 nM; in the experiment on pTau, 13 nM; on GSK3α, 0.16 nM.

Consider `O=C(Nc1cnccc1-c1ccccc1)c1ccnc(Nc2cccnc2)n1` [Example 34, N-(4-Phenylpyridin-3-yl)-2-(pyridin-3-ylamino)pyrimidine-4-carboxamide], for which the IC50 at GSK3β (setting [1]) was 1.2 nM; in the experiment with pTau it was 46 nM; on GSK3α, 0.69 nM.

Consider `O=C(Nc1cnccc1N1CCC(F)(F)CC1)c1ccnc(Nc2ccccc2)n1` [Example 3, N-(4-(4,4-Difluoropiperidin-1-yl)pyridin-3-yl)-2-(phenylamino)pyrimidine-4-carboxamide], for which the half-maximal inhibitory concentration (IC50) at GSK3β (setting [1]) came to 0.2 nM; in the experiment on pTau, 8.5 nM; on GSK3α, 0.15 nM.

As to `O=C(Nc1cnccc1-c1ccccc1)c1ccnc(Nc2c(F)cc(Cl)cc2F)n1` [Example 30, 2-((4-Chloro-2,6-difluorophenyl)amino)-N-(4-phenylpyridin-3-yl)pyrimidine-4-carboxamide], the results for the IC50 at GSK3β (setting [1]), with pTau and on GSK3α were 3.9 nM, 350 nM and 1.8 nM, respectively.

As to `O=C(Nc1cncnc1Nc1ccccc1)c1ccnc(Nc2ccccc2)n1` [Example 75, 2-(Phenylamino)-N-(4-(phenylamino)pyrimidin-5-yl)pyrimidine-4-carboxamide], the figures for the IC50 at GSK3β (setting [1]), in the experiment on pTau and on GSK3α were 48 nM, 4500 nM and 33 nM, respectively.

On to `O=C(Nc1cncnc1OCC(F)(F)F)c1ccnc(Nc2ccc(OC(F)(F)F)cc2)n1` [Example 69, N-(4-(2,2,2-Trifluoroethoxy)pyrimidin-5-yl)-2-((4-(trifluoromethoxy)phenyl)amino)pyrimidine-4-carboxamide], for which the figures for the IC50 at GSK3β (setting [1]), with pTau and at GSK3α were 0.56 nM, 160 nM and 0.6 nM, respectively.

With `Cn1nc(C2CC2)cc1Nc1nccc(C(=O)Nc2cnccc2-c2ccccc2)n1` [Example 97, 2-((3-Cyclopropyl-1-methyl-1H-pyrazol-5-yl)amino)-N-(4-phenylpyridin-3-yl)pyrimidine-4-carboxamide], the figures for the IC50 at GSK3β (setting [1]), with pTau and on GSK3α were 29 nM, 870 nM and 30 nM, respectively.

In the case of `CC(C)(C)CNc1nccc(C(=O)Nc2cncnc2N2CCOCC2)n1` [Example 204], the IC50 on GSK3β (setting [1]) stood at 13 nM; in the experiment with pTau, 1100 nM; at GSK3α, 11 nM.

For the compound `O=C(Nc1cnc(F)cc1N1CCC(F)(F)CC1)c1ccnc(Nc2ccc(Cl)cc2)n1` [Example 178, 2-((4-Chlorophenyl)amino)-N-(4-(4,4-difluoropiperidin-1-yl)-6-fluoropyridin-3-yl)pyrimidine-4-carboxamide], the IC50 at GSK3β (setting [1]) amounted to 0.67 nM; with pTau it was 69 nM; at GSK3α it was 0.57 nM.

Take `CCOc1ccc(Nc2nccc(C(=O)Nc3cnccc3OCC(F)(F)F)n2)cc1` [Example 53, 2-((4-Ethoxyphenyl)amino)-N-(4-(2,2,2-trifluoroethoxy)pyridin-3-yl)pyrimidine-4-carboxamide]: the IC50 on GSK3β (setting [1]) was determined as 0.35 nM; in the experiment with pTau, 10 nM; on GSK3α, 0.22 nM.

Take `C[S+]([O-])c1ccc(Nc2nccc(C(=O)Nc3cnccc3-c3ccccc3)n2)cc1` (stereo not drawn) [Example 14, 2-((4-(Methylsulfinyl)phenyl)amino)-N-(4-phenylpyridin-3-yl)pyrimidine-4-carboxamide]: the IC50 amounted to 0.39 nM on GSK3β (setting [1]), 14 nM in the experiment on pTau and 0.18 nM on GSK3α.

`CC(C)C(C)Nc1nccc(C(=O)Nc2cnccc2OCC(F)(F)F)n1` (stereo not drawn) [Example 125, 2-((3-Methylbutan-2-yl)amino)-N-(4-(2,2,2-trifluoroethoxy)pyridin-3-yl)pyrimidine-4-carboxamide]: the IC50 was 1.1 nM at GSK3β (setting [1]), 55 nM with pTau and 0.84 nM at GSK3α.

Consider `N#Cc1ccc(Nc2nccc(C(=O)Nc3cnc(F)cc3N3CCC(F)(F)CC3)n2)cc1` [Example 176, 2-((4-Cyanophenyl)amino)-N-(4-(4,4-difluoropiperidin-1-yl)-6-fluoropyridin-3-yl)pyrimidine-4-carboxamide], for which the IC50 on GSK3β amounted to 0.32 nM; with pTau, 28 nM; on GSK3α, 0.28 nM.

As to `O=C(Nc1cnccc1OCC(F)(F)F)c1ccnc(NCc2ccc3c(c2)OCO3)n1` [Example 132, 2-((Benzo[d][1,3]dioxol-5-ylmethyl)amino)-N-(4-(2,2,2-trifluoroethoxy)pyridin-3-yl)pyrimidine-4-carboxamide], the IC50 amounted to 1.9 nM at GSK3β, 220 nM with pTau and 2.2 nM at GSK3α.

`N#Cc1ccc(Nc2nccc(C(=O)Nc3cnccc3-c3ccccc3)n2)cc1Cl` [Example 27, 2-((3-Chloro-4-cyanophenyl)amino)-N-(4-phenylpyridin-3-yl)pyrimidine-4-carboxamide]: the values for the 50% inhibitory concentration (IC50) at GSK3β, in the experiment on pTau and at GSK3α were 0.24 nM, 20 nM and 0.16 nM, respectively.

For the compound `O=C(Nc1cnccc1-c1ccccc1)c1ccnc(Nc2cc(Cl)c(Cl)cc2F)n1` [Example 31, 2-((4,5-Dichloro-2-fluorophenyl)amino)-N-(4-phenylpyridin-3-yl)pyrimidine-4-carboxamide], the IC50 worked out at 0.89 nM at GSK3β (setting [1]), 320 nM in the experiment with pTau and 0.52 nM on GSK3α.

As for `CC(C)(C)C1CCC(Nc2nccc(C(=O)Nc3cnccc3OCC(F)(F)F)n2)CC1` (stereo not drawn) [Example 121, 2-((4-(tert-Butyl)cyclohexyl)amino)-N-(4-(2,2,2-trifluoroethoxy)pyridin-3-yl)pyrimidine-4-carboxamide], the IC50 on GSK3β (setting [1]) was found to be 0.46 nM; in the experiment with pTau, 61 nM; at GSK3α, 0.35 nM.

With `O=C(Nc1cncnc1OCC(F)(F)F)c1ccnc(NCC2CCOCC2)n1` [Example 190, 2-(((Tetrahydro-2H-pyran-4-yl)methyl)amino)-N-(4-(2,2,2-trifluoroethoxy)pyrimidin-5-yl)pyrimidine-4-carboxamide], the values for the IC50 on GSK3β, with pTau and at GSK3α were 3.1 nM, 190 nM and 2.6 nM, respectively.

`O=C(Nc1cnc(F)cc1OCC(F)(F)F)c1ccnc(Nc2ccc(C(F)(F)F)cc2)n1` [Example 109, N-(6-Fluoro-4-(2,2,2-trifluoroethoxy)pyridin-3-yl)-2-((4-(trifluoromethyl)phenyl)amino) pyrimidine-4-carboxamide]: the results for the IC50 at GSK3β (setting [1]), in the experiment with pTau and on GSK3α were 0.88 nM, 44 nM and 0.43 nM, respectively.

Consider `O=C(Nc1cnccc1OCC(F)(F)F)c1ccnc(NC2CC2)n1` [Example 130, 2-(Cyclopropylamino)-N-(4-(2,2,2-trifluoroethoxy)pyridin-3-yl)pyrimidine-4-carboxamide], for which the 50% inhibitory concentration (IC50) on GSK3β (setting [1]) came out at 1.6 nM; in the experiment on pTau, 46 nM; on GSK3α, 1.5 nM.

On to `O=C(Nc1cnccc1OCC(F)(F)F)c1ccnc(Nc2ccc3cccnc3c2)n1` [Example 107, 2-(Quinolin-7-ylamino)-N-(4-(2,2,2-trifluoroethoxy)pyridin-3-yl)pyrimidine-4-carboxamide], for which the IC50 at GSK3β (setting [1]) worked out at 0.17 nM; in the experiment with pTau, 9.4 nM; on GSK3α, 0.24 nM.

In the case of `Nc1nccc(C(=O)Nc2cnccc2N2CCC(F)(F)CC2)n1` [Example 2, 2-Amino-N-(4-(4,4-difluoropiperidin-1-yl)pyridin-3-yl)pyrimidine-4-carboxamide], the IC50 worked out at 30 nM at GSK3β (setting [1]), 1100 nM in the experiment with pTau and 18 nM at GSK3α.

For the compound `O=C(Nc1cnccc1-c1ccccc1)c1ccnc(Nc2cncc3c2CCCC3)n1` [Example 91, N-(4-Phenylpyridin-3-yl)-2-((5,6,7,8-tetrahydroisoquinolin-4-yl)amino)pyrimidine-4-carboxamide], the IC50 on GSK3β (setting [1]) worked out at 3.5 nM; with pTau, 270 nM; at GSK3α, 2.3 nM.

What is called IC50 is the midpoint of a concentration-inhibition curve.
